Data set [1] is described as follows: Transacylation reaction of amphiphile with co-lipid DOPE on co-storage. It counts as physicochemical. The text has this:
Although heretofore unrecognized in the art, it has been determined also that certain co-lipids may react chemically with certain types of cationic amphiphiles under conditions of co-storage, there resulting new molecular species. Generation of such new species is believed to occur via mechanisms such as transacylation. In this regard, see FIG. 4 which depicts a transacylation reaction involving spermidine cholesterol carbamate(No.67) and DOPE, there resulting lyso PE species and multiple forms of particular acyl-cationic amphiphile (designated No. 80).
With respect to such reactions, the following remarks are of interest. […] It is expected that these phenomena would also apply to lyophilized amphiphile/DOPE preparations.
Accordingly, it is highly preferred to maintain such amphiphile/DOPE preparations at very cold temperatures, such as −70 degrees C.

Data set [2] is described as follows: Transgene expression by protonation state of the amphiphile in transfecting composition with DOPE. Conditions: for transgene expression activity: with DOPE. As to the method:
With respect to amphiphile No. 67 (spermidine cholesterol carbamate), it has been observed that when providing this amphiphile for a transfecting composition with DOPE (itself provided as a zwitterion), transgene expression was best for the free base, but decreased if the amphiphile was prepared as an acetate salt. […] Under the circumstances described, the plasmid DNA provided for contacting with the amphiphile was prepared (without buffer) as a sodium salt in water.

The test system of a further data set is lungs of balb/c mice. As to the method: This assay was used to assess the ability of the cationic amphiphiles of the invention to transfect cells in vivo from live specimens. In the assay, the lungs of balb/c mice were instilled intra-nasally (the procedure can also be performed trans-tracheally) with 100 μl of cationic amphiphile: DNA complex, which was allowed to form during a 15-minute period prior to administration according to the following procedure. The amphiphile (premixed with co-lipid, see below) was hydrated in water for 10 minutes, a period sufficient to yield a suspension at twice the final concentration required. This was vortexed for two minutes and aliquoted to provide 55 microliter quantities for each mouse to be instilled. Similarly, DNA encoding the reporter (CAT) gene was diluted with water to a concentration twice the required final concentration, and then aliquoted at 55 microliters for each mouse to be instilled. The lipid was gently combined with the DNA (in a polystyrene tube), and the complex allowed to form for 15 minutes before the mice were instilled therewith.
The plasmid used (pCMVHI-CAT, see Example 4) provides an encoding DNA for chloramphenicol transferase enzyme. Specifics on the amphiphile: DNA complexes are provided below.
Two days following transfection, mice were sacrificed, and the lungs and trachea removed, weighed, and homogenized in a buffer solution (250 mM Tris, pH 7.8, 5 mM EDTA). The homogenate was clarified by centrifugation, and the deacetylases therein were inactivated by heat treatment at 70° C. for 10 minutes. Lysate was incubated overnight with acetyl coenzyme A and C^14-chloramphenicol. CAT enzyme activity was then visualized by thin layer chromatography (“TLC”) following an ethyl acetate extraction.
The presence of the enzyme CAT will cause an acetyl group to be transferred from acetylcoenzyme A to C^14-chloramphenicol. The acetylated/radiolabeled chloramphenicol migrates faster on a TLC plate and thus its presence can be detected.
With respect to the comparison provided by FIG. 10, the following conditions are of note. The transfection solution for spermidine cholesterol carbamate contained 6 mM DNA measured as concentration of nucleotide, and 1.5 mM of cationic amphiphile. […] For transfection with DC-chol, the molar ratio of DC-chol to DOPE was 3:2, and the concentrations of cationic amphiphile and of DNA (as nucleotide) were 1.3 mM and 0.9 mM, respectively. For transfection with DMRIE, the molar ratio of DMRIE to DOPE was 1:1 and the concentrations of cationic amphiphile and of DNA were 1.7 mM and 1.2 mM, respectively.
Additional experiments were performed to compare in vivo the transfection efficiency of cationic amphiphiles depicted in FIGS. 1, 5 and 7. […] The compounds were administered intra-nasally using between 12 and 15 mice per compound. As in part A above, ng CAT activity was measured per 100 mg of tissue. […] Construction of pCF1/CAT and pCF2/CAT is described below in Example 4.
The in vivo data reported in FIGS. 13, 14 and 15 were compiled generally as follows. As aforementioned, FIGS. 10 and 11 report data from the complete in vivo optimization of amphiphile No. 53. Amphiphile No. 67 was subjected to a similar partial optimization. With respect to all of the other cationic amphiphiles reported on, and taking advantage of numerous structural similarities, optimized compositions for in vivo testing were extrapolated from in vitro results.

The subject of data set [3] is Immortalized human cystic fibrosis airway cells (CFT-1). Kind of data set: SPQ assay of cAMP-stimulated Cl− channel activity after transfection with pCMV-CFTR. It counts as cell-based. Particulars: amphiphile:DOPE 1:1, 10.5 μmolar each, 30 μmolar pCMV-CFTR; 48 hours after transfection. On the procedure: Immortalized human cystic fibrosis airway cells (CFT-1, as above) were used.
In preparation for the assay, the cells were grown on glass coverslips until approximately 60% confluent. The cells were then transfected with a complex of spermidine cholesterol carbamate: DOPE (1:1) and a plasmid(pCMV-CFTR) containing a cDNA that encodes wild type human CFTR. pCMV-CFTR plasmid is a construct containing the encoding sequence for CFTR and the following regulatory elements, a CMV promoter and enhancer, and an SV40 polyadenylation signal. Additional constructs suitable for the practice of this example include pMT-CFTR, Cheng et al., Cell. 63, 827-834 (1990). The complex used was 10.5 μmolar of spermidine cholesterol carbamate (also of DOPE) and 30 μmolar of pCMV-CFTR based on nucleotide.
48 hours after amphiphile-mediated transfection, cells were tested for cAMP-stimulated Cl^−channel activity using the 6methoxy-N-(3-sulfopropyl)quinolinium (“SPQ”) assay. […] In the assay, cAMP-dependent Cl^−channel activity was assessed using “SPQ” (from Molecular Probes, Eugene, Oreg.), a halide-sensitive fluorophore. Increases in halide permeability results in a more rapid increase in SPQ fluorescence, and the rate of change (rather than the absolute change in fluorescence) is the important variable in assessing Cl^−permeability. […]

Data set [4] in a line: Zeta potential of amphiphile/DNA complex. Conditions: 1:1 with DOPE. It counts as physicochemical. On the procedure: Zeta potentials of the samples can be measured (using typically 5 measurements per sample) employing a Malvern Zetasizer 4 (Malvern Instruments, Southborough, Mass.) and a zeta cell (AZ-104 cell, Malvern Instruments Co.). Dried lipid films containing the cationic lipid and DOPE are hydrated in distilled water (dH2O). DNA typically should be diluted to a concentration of about 300 μM in dH2O. The DNA solution (1.5 mL) can then be added to an equal volume of cationic lipid vesicles and incubated at room temperature for 10 min. Enough NaCl (for example, 4 mM stock) may be added to result in a final concentration of 1 mM NaCl. If necessary, the sample can be diluted further with 1 mM NaCl (to maintain a photomultiplier signal below 4000 counts per second), and distilled water can be used in place of the NaCl solutions.

Another data set has as its system BALB/c mouse. The data set can be described thus: Intravenous delivery of CAT reporter transgene, organ targeting (lung, heart). It counts as in vivo. On the procedure:
The reporter plasmid pCF-1 CAT (Example 4) was used and was purified to minimize endotoxin (<1 EU/mg pDNA), and also chromosomal DNA contamination (<2%). Amphiphile No. 53 (1:1 with DOPE)/DNA complex was prepared according to the procedures of Example 3. The amphiphile was provided as the free base, the plasmid was prepared as a sodium salt in water, and the DOPE was provided in zwitterionic form.
The animal model was the BALB/c mouse. Females 6-8 weeks old weighing 16-18 g were injected intravenously using the tail vein, using 5 animals per group. The volume of lipid: pDNA complex used was 100 μl in all experiments. Unless noted otherwise, mice were sacrificed 48 h following administration of the complex. Organs were frozen immediately on dry ice to store for subsequent analysis.
Expression of chloramphenicol acetyl transferase (CAT) was quantitated using a radiochemical assay for CAT enzymatic activity. Organs were weighed and homogenized on ice in a lysis buffer containing protease inhibitors. The lysate was freeze-thawed 3X, centrifuged, and heated to 65° C. to inactivate deacetylases before adding it to a reaction mixture containing ^14C-chloramphenicol. […] Spots corresponding to the acylated reaction products were quantitated (Betagen) and converted to ng CAT activity using authentic CAT standards. […]

For data set [5], the system named is CFT-1 cell line (human cystic fibrosis bronchial epithelial cells). The data set can be described thus: Cell transfection assay (β-galactosidase expression from pCMVβ). Conditions: amphiphile:DOPE 1:1, CFT-1 cells. It counts as cell-based.
Method: Separate 3.35 μmole samples of spermidine cholesterol carbamate (amphiphile No. 53) and the neutral lipid dioleoylphosphatidylethanolamine (“DOPE”) were each dissolved in chloroform as stock preparations. Following combination of the solutions, a thin film was produced by removing chloroform from the mixture by evaporation under reduced pressure (20 mm Hg). The film was further dried under vacuum (1 mm Hg) for 24 hours.
The resulting suspension was then diluted with 4 ml of water to yield a solution that is 670 μM in cationic amphiphile and 670 μM in neutral colipid.
For preparation of the transfecting solution, DNA encoding for β- galactosidase (pCMVβ, ClonTech., Palo Alto, Calif.) was dissolved in OptiMEM culture medium (Gibco/BRL No. 31885-013).
The resulting 335 μM solutions were then serially diluted 7 times to generate 8 separate amphiphile-containing solutions having concentrations ranging from 335 μM to 2.63 μM, with each resultant solution having a volume of 165 μl. Thus, 64 solutions were prepared in all, there being 8 wells each of 8 different concentrations of amphiphile/DOPE. […]
The mark [6] stands for this setting: 1.0-1.5 mM amphiphile, cholesterol 1:1, DNA 4.0-6.0 mM, pCMVHI-CAT, intra-nasal.
[7] abbreviates: 0.6 mM amphiphile, 0.6 or 1.2 mM DOPE, 3.6 mM plasmid DNA.

SMILES strings stand for the structures.

As to `CC(C)CCCC(C)C1CCC2C3CC=C4CC(OC(=O)N(CCCN)CCCCNCCCN)CCC4(C)C3CCC12C` (centres unmarked) [amphiphile No. 67], the “transacylation with DOPE” value in data set [1] (amphiphile and co-lipid dried down to a thin film from chloroform) is listed as “transacylation also occurs”; in data set [1] (amphiphile prepared as mono, di, or tri acetate salt), “slow transacylations”; in data set [1] (mixture of amphiphile and DOPE in chloroform solvent), “does not appear to participate in such reactions”. Also, the transgene expression result in data set [2] (amphiphile as free base, with DOPE (zwitterion)) was “best”. Moreover, the transgene expression activity result in data set [2] (amphiphile as mono and di acetate salts) is on record as “decreased step-wise”; in data set [2] (amphiphile as tri-acetate salt) it was “minimal”. In addition, the “transfection enhancement in relation to N^1-thermospermine cholesteryl carbamate and N^1-spermidine cholesteryl carbamate” value in the data set on lungs of balb/c mice (4 mM DNA (as nucleotide), 1 mM amphiphile, 2 mM co-lipid, procedures of Example 3 part B) is given as “at least 30 fold”.

As for `CC(C)CCCC(C)C1CCC2C3CC=C4CC(OC(=O)N(CCCN)CCCCN)CCC4(C)C3CCC12C` (centres unmarked) [amphiphile No. 53, N^4-spermidine cholesteryl carbamate], the “cells exhibiting measurable cAMP-stimulated Cl− channel activity” value in data set [3] is “Approximately 60%”. Moreover, the “zeta potential of the complex” value in data set [4] (amphiphile/DNA molar ratio less than about 0.5) is “about −30 mV”; in data set [4] (amphiphile/DNA ratio of 1.25), “about +30 mV”. In addition, the “organ distribution of CAT expression” value in the data set with BALB/c mouse (amphiphile/DNA molar ratio less than about 0.5, DNA 0.9 mM) is listed as “strongly weighted toward the lung”; in the data set on BALB/c mouse (amphiphile/DNA ratio 1.25, DNA 0.9 mM) it was “substantial expression was found in the heart”. Moreover, the “transfection efficiency (β-galactosidase expression) improved by a factor, relative to DMRIE:DOPE (1:1)” value in data set [5] is “about 5”. Further, in the data set with lungs of balb/c mice (1.5 mM amphiphile, 1:1 DOPE, 6 mM DNA (pCMVHI-CAT), intra-nasal, 2 days), the “enhancement of in vivo transfection (ng CAT activity per 100 mg tissue) in relation to DMRIE and DC-Chol” value is reported as not below 20 fold. Moreover, the “transfection enhancement in relation to N^1-spermidine cholesteryl carbamate” value in the data set with lungs of balb/c mice (6 mM DNA (as nucleotide), 1.5 mM amphiphile, 1.5 mM co-lipid, procedures of Example 3 part B) is reported as “about 30 fold”. Also, the “transfection efficiency (ng CAT/100 mg tissue) with cholesterol as co-lipid compared with DOPE as co-lipid” value in the data set with lungs of balb/c mice (setting [6]) is on record as “less effective”. Besides, the “transfection with cholesterol as co-lipid compared with DC-Chol/DOPE” value in the data set on lungs of balb/c mice (setting [6]) is on record as “substantially more effective”. Also, the “toxicity to the target cells” value with lungs of balb/c mice (about 0.75 mM amphiphile, 3.0 mM plasmid, versus 1.5 mM / 6 mM) is recorded as “less toxic”.

With `CC(C)CCCC(C)C1CCC2C3CC=C4CC(OC(=O)NCCCNCCCCN)CCC4(C)C3CCC12C` (centres unmarked) [amphiphile No. 37, N^1-spermidine cholesteryl carbamate], in the data set on lungs of balb/c mice (setting [7]), the “improvement in reporter gene expression, free base form versus fully protonated hydrochloride salt” value is listed as approximately 50 fold and the “reporter gene expression, free base form compared to fully protonated hydrochloride salt” value was “dramatically increased”.

The values above are taken from patent US20020013282A1, “CATIONIC AMPHIPILE COMPOSITIONS FOR INTERACELLUAR DELIVERY OF THERAPEUTIC MOLECULES” (priority 1995, published 2002).
